Assay [1] deals with Staphylococcus aureus. Nature of the assay: Antibacterial activity against methicillin-resistant Staphylococcus aureus clinical isolate SA86 by broth dilution assay. In kind it is functional.
The subject of assay [2] is Staphylococcus aureus. In words: Antibacterial activity against methicillin-susceptible Staphylococcus aureus ATCC 29213 by broth dilution assay. In kind it is functional. For orientation: Dilution methods test growth across graded concentrations, often in twofold steps.

The values that follow come from ChEMBL document CHEMBL4184145, “Synthesis and structure-activity relationship of teixobactin analogues via convergent Ser ligation” (2017).

Converted amounts (≈) assume the structure as drawn.

As a reminder, the MIC is the smallest concentration in the dilution series that meets the test's criterion for growth inhibition. Higher therefore signals a need for much substance.

With `CC[C@@H](C)[C@@H](NC(=O)[C@@H](CCC(N)=O)NC(=O)[C@H](CO)NC(=O)[C@@H](NC(=O)[C@@H](Cc1ccccc1)NC)[C@@H](C)CC)C(=O)N[C@H](C(=O)N[C@@H](CO)C(=O)N[C@H]1C(=O)N[C@@H](Cc2ccccc2)C(=O)N[C@@H](CCCN)C(=O)N[C@@H]([C@@H](C)CC)C(=O)O[C@H]1C)[C@@H](C)CC`, the MIC in the assay with Staphylococcus aureus [1] and against Staphylococcus aureus [2] was not below 32 µg/mL each time.
As for `CC[C@@H](C)[C@@H](NC(=O)[C@@H](CCC(N)=O)NC(=O)[C@H](CO)NC(=O)[C@@H](NC(=O)[C@@H](Cc1ccccc1)NC)[C@@H](C)CC)C(=O)N[C@H](C(=O)N[C@@H](CO)C(=O)N[C@H]1C(=O)N[C@@H](C)C(=O)N[C@@H](CCCN)C(=O)N[C@@H](CC(C)C)C(=O)O[C@H]1C)[C@@H](C)CC`, the MIC against Staphylococcus aureus [1] and against Staphylococcus aureus [2] was not below 32 µg/mL each time.
Take `CC[C@@H](C)[C@@H](NC(=O)[C@@H](CCC(N)=O)NC(=O)[C@H](CO)NC(=O)[C@@H](NC(=O)[C@@H](Cc1ccccc1)NC)[C@@H](C)CC)C(=O)N[C@H](C(=O)N[C@@H](CO)C(=O)N[C@H]1C(=O)N[C@@H](CCCN)C(=O)N[C@@H](CCCN)C(=O)N[C@@H]([C@@H](C)CC)C(=O)O[C@H]1C)[C@@H](C)CC`: the MIC against Staphylococcus aureus [1] and in the assay with Staphylococcus aureus [2] was 8 µg/mL (≈ 6.42 µM) in each case.
Take `CC[C@@H](C)[C@@H](NC(=O)[C@@H](CCC(N)=O)NC(=O)[C@H](CO)NC(=O)[C@@H](NC(=O)[C@@H](Cc1ccccc1)NC)[C@@H](C)CC)C(=O)N[C@H](C(=O)N[C@@H](CO)C(=O)N[C@H]1C(=O)N[C@@H](C)C(=O)N[C@@H](CCCN)C(=O)N[C@@H](C(C)C)C(=O)O[C@H]1C)[C@@H](C)CC`: the MIC in the assay on Staphylococcus aureus [1] and in the assay with Staphylococcus aureus [2] was 8 µg/mL (≈ 6.73 µM) in each case.
